Test results taken from patent publication US20230310352A1, “NOVEL COMPOSITIONS AND METHODS FOR THE TREATMENT OF LUNG FIBROSIS” (LAURENT PHARMACEUTICALS INC., priority 2020, published 2023).
“Also recorded” adds a separate entry of the source.

What was measured:
[1] = test system: bleomycin-induced lung fibrosis; test: Intratracheal bleomycin mouse model of pulmonary fibrosis (21-day model); assay type: in vivo, C57BL/6N mice; conditions: Day 21, oral once daily for 14 days
Description: Oral administration of a solid amorphous dispersion formulation of fenretinide (LAU-7b SDI) was evaluated in treating and/or reducing pulmonary fibrosis in mouse model of lung fibrosis induced via a single intratracheal administration of bleomycin followed by vehicle, fenretinide (LAU-7b SDI) or pirfenidone oral treatment for 21 days. The LAU-7b SDI formulation was obtained by spray drying and contains fenretinide in amorphous form in a solid dispersion comprising a matrix polymer, based on the following formula: 40% fenretinide, 59.6% povidone (KOLLIDON® 30), 0.24% butylated hydroxyanisole (BHA) and 0.16% butylated hydroxytoluene (BHT).
Male C57BL/6N mice from Charles River Laboratories, 10-12 weeks of age, weighing around 20-25 g, at the time of their enrolment, received 50 μL of bleomycin sulfate (2.0 mg/kg) by a single intratracheal instillation on Day 1 of the study. The Sham group received an equivalent volume of 0.9% saline. On Day 7 post-bleomycin instillation the animals were randomized in groups of 8 animals based on their body weight loss and Penh value. Oral dosing by gavage (10 mL/kg) with the vehicle (sham and BLM Control groups), LAU-7b SDI (fenretinide at 5 mg/kg and 10 mg/kg dose), and the reference compound (pirfenidone 100 mg/kg) were initiated once daily starting from Day 7 to Day 21. Two hours following the last dose on Day 21 all the mice were sacrificed, the lungs of each mouse were harvested, flushed with 0.9% NaCl and inflated with 10% neutral buffered formalin solution. After embedding and mounting of the lung tissue (transversal slices of 5 μm thickness), the histology slides were stained with hematoxylin/eosin for the Ashcroft score evaluation by a treatment-blinded pathologist, and with Sirius red staining for automated fibrosis quantification (Biocellvia, France).
As in Example 4, the key endpoints evaluated in this study were the Ashcroft score, pulmonary foci and collagen content obtained by histological assessment of the lung tissue at the end of the study. Statistical analysis was made on normally distributed data by one-way ANOVA followed by multiple comparisons (Fisher's LSD post hoc test) to assess the difference between the groups, using Graph Pad Prism Software version 8.0 (San Diego, CA, USA). Differences were considered statistically significant when P values were p<0.05 (*), or p<0.01 (**) or p<0.001 (***). The Ashcroft score was assessed in the lung tissue by treatment-blinded pathologist on the H&E stained histology slides (2 cross sections/animal) and using the modified Ashcroft scale. Briefly, each lung section was scanned at a magnification of ×100 (H&E staining), and graded from 0 (normal lung) to 8 (total fibrotic obliteration of the field). The mean value of the grades obtained for each of the two sections was used as the Ashcroft score.
Pulmonary foci (fibrotic tissue) and lung collagen content were quantified in the Sirius red stained lung tissue histology sections by high resolution, automated digital image analysis (Biocellvia, France) on Day 21 after lung fibrosis induction by bleomycin (BLM) instillation and following a 14-day oral gavage treatment with LAU-7b SDI (fenretinide, two doses), pirfenidone (reference drug) or vehicle only. Full field analysis of 2 lung sections per animal was conducted and the results were expressed as a mean percentage of total surface. This test is considered highly reliable, offering reproducible and observer-independent assessment of quantitative analysis of fibrosis.

[2] = test system: Normal human lung fibroblast cells (NHLF cells, ATCC CRL-7000); test: αSMA mRNA transcript by qRT-PCR after TGF-β1 exposure in NHLF; assay type: cell-based; conditions: TGF-β1 2 ng/mL + fenretinide 1, 2, 3, 4 μM, 3 days, 5% FBS
Description: Normal human lung fibroblast cells (NHLF cells, ATCC CRL-7000, EMEM media; 5% FBS) were incubated for 3 days at 37° C. and treated with TGF-β1 (2 ng/mL) or TGF-β1 (2 ng/mL)+Fenretinide (1, 2, 3, 4 μM). At the end of the 3 day-treatment period, media was removed using a vacuum pump and total ribonucleic acid (RNA) was isolated using the TriReagent protocol (BioShop) and cDNA was obtained by reverse transcription using the SUPERSCRIPT® VILO®. αSMA transcript levels were determined by quantitative real-time Polymerase Chain Reaction (qRT-PCR) using the Fast SyBR Master Mix and specific probes, and quantified following the ΔΔCT, normalized to PUM-1 expression as internal control. The experiment was performed in quadruplicate (4 wells/condition).

[3] = fenretinide 5 mg/kg (as LAU-7b SDI)
[4] = fenretinide 10 mg/kg (as LAU-7b SDI), pirfenidone 100 mg/kg

CC1=C(/C=C/C(C)=C/C=C/C(C)=C/C(=O)Nc2ccc(O)cc2)C(C)(C)CCC1 [fenretinide, 4-hydroxyphenyl retinamide]
Ashcroft score vs BLM control [1, 3]: also reduced
percentage of collagen content, automated Sirius red analysis, vs BLM control [1, 3]: did not induce statistically significant reduction
percentage of pulmonary foci, automated Sirius red analysis, vs BLM control [1, 3]: did not induce statistically significant reduction
Ashcroft score vs BLM control [1, 4]: reduced significantly
percentage of collagen content, automated Sirius red analysis, vs BLM control [1, 4]: reduced significantly (p<0.05)
percentage of pulmonary foci, automated Sirius red analysis, vs BLM control [1, 4]: reduced significantly (p<0.05)
induction of α-SMA fibrotic marker expression (mRNA, qRT-PCR) [2]: attenuates, in a dose-dependent manner; also recorded: dose-dependent attenuation
